Where a SMILES comes first, the peptide text is derived from it. Bridges are numbered along the chain shown (N, C = ends). [ ]: non-standard residue; d: D form. The star is where a group is joined. Ala(morpholin-4-yl) = N[C@@H](CN1CCOCC1)C(=O)O; Phe(4-COOH) = N[C@@H](Cc1ccc(C(=O)O)cc1)C(=O)O; Bip = N[C@@H](Cc1ccc(-c2ccccc2)cc1)C(=O)O; Phe(3-Me) = Cc1cccc(C[C@H](N)C(=O)O)c1; Val(3-OH) = CC(C)(O)[C@H](N)C(=O)O; Cha = N[C@@H](CC1CCCCC1)C(=O)O; dOrn = NCCC[C@@H](N)C(=O)O; dDab = NCC[C@@H](N)C(=O)O; Carboxymethyl = O=C(O)C*; Orn = NCCC[C@H](N)C(=O)O; Pra = C#CC[C@H](N)C(=O)O; dDap = NC[C@@H](N)C(=O)O; Dab = NCC[C@H](N)C(=O)O; Dap = NC[C@H](N)C(=O)O; X9 = c1cn(CCCN*)cn1
These molecules were tested against T1, human PD-1 / PD-L1-Ig binding on Jurkat cell line over-expressing human PD-1 (Jurkat-PD-1) (Homo sapiens, UniProt Q15116) (assay: Jurkat-PD-1 Cell Binding High-Content Screening Assay (CBA)). Conditions: Jurkat-PD-1 cells, PE-labeled PD-L1-Ig 20 nM final; read-out: Jurkat HPD1_PDL1 IC50.
T1 construct: expressed in transfected cells; host or cells: Jurkat
Assay type: cell-based
Method in brief: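 Jurkat-hPD-1 cells in DMEM with 10% fetal calf serum receive test compound and are held at 37° C for 2 h. PE-labeled PD-L1-Ig is added at 20 nM final and left for 1 hour. Cells are then fixed and Hoechst-stained, and binding is measured by imaging.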

T1 sequence (Q15116 25-288): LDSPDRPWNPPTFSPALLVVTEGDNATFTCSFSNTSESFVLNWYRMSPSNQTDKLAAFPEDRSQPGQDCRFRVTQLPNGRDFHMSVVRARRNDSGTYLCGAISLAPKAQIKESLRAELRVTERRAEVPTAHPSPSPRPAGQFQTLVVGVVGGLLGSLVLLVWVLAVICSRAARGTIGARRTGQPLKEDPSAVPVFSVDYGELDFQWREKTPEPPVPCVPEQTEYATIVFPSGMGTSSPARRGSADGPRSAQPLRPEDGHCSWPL

Compound | IC50
C#CC[C@H](NC(=O)[C@H](CCN)NC(=O)[C@@H]1CSCC(=O)N[C@@H](CCCN)C(=O)N[C@@H](Cc2ccc(C(=O)O)cc2)C(=O)N[C@@H](CC(=O)O)C(=O)N[C@@H](Cc2cccc(C)c2)C(=O)N[C@@H](Cc2ccc(C(=O)O)cc2)C(=O)N[C@@H](Cc2ccc(-c3ccccc3)cc2)C(=O)N[C@@H](Cc2ccc(C(=O)O)cc2)C(=O)N[C@@H](CCCN)C(=O)N[C@H](CC(C)C)C(=O)N[C@@H](CCN)C(=O)N[C@@H](CC2CCCCC2)C(=O)N[C@@H](C(C)(C)O)C(=O)N[C@@H](CCCN)C(=O)N1)C(N)=O [Compound 1864] ({CH2CO}-[Orn][Phe(4-COOH)]D[Phe(3-Me)][Phe(4-COOH)][Bip][Phe(4-COOH)][Orn][dL][Dab][Cha][Val(3-OH)][Orn]C[Dab][Pra]-NH2; thioether N-14) | 16.5 nM
C#CC[C@H](NC(=O)[C@H](CCN)NC(=O)[C@@H]1CSCC(=O)N[C@@H](CCN)C(=O)N[C@@H](Cc2ccc(C(=O)O)cc2)C(=O)N[C@@H](CC(=O)O)C(=O)N[C@@H](Cc2cccc(C)c2)C(=O)N[C@@H](Cc2ccc(C(=O)O)cc2)C(=O)N[C@@H](Cc2ccc(-c3ccccc3)cc2)C(=O)N[C@@H](Cc2ccc(C(=O)O)cc2)C(=O)N[C@@H](CCCN)C(=O)N[C@H](CC(C)C)C(=O)N[C@@H](CCN)C(=O)N[C@@H](CC2CCCCC2)C(=O)N[C@@H](C(C)(C)O)C(=O)N[C@@H](CO)C(=O)N1)C(N)=O [Compound 1865] ({CH2CO}-[Dab][Phe(4-COOH)]D[Phe(3-Me)][Phe(4-COOH)][Bip][Phe(4-COOH)][Orn][dL][Dab][Cha][Val(3-OH)]SC[Dab][Pra]-NH2; thioether N-14) | 12 nM
CC(C)C[C@@H]1NC(=O)[C@H](Cc2c[nH]c3ccccc23)NC(=O)[C@H](CC(=O)O)NC(=O)[C@H](Cc2ccc(O)cc2)NC(=O)[C@H](Cc2ccccc2)NC(=O)CSC[C@@H](C(=O)N[C@@H](C)C(N)=O)NC(=O)[C@H](CO)NC(=O)[C@H](C(C)C)NC(=O)[C@H](CC(C)C)NC(=O)[C@H](CC(N)=O)NC(=O)[C@@H](C)NC(=O)[C@@H](CCCCN)NC(=O)[C@H](C(C)C)NC(=O)[C@H](Cc2ccc(-c3ccccc3)cc2)NC1=O [Compound 2000] ({CH2CO}-FYDWL[Bip]V[dK][dA]NLVSCA-NH2; thioether N-14) | 39.4 nM
CC(C)C[C@@H]1NC(=O)[C@H](Cc2c[nH]c3ccccc23)NC(=O)[C@H](CC(=O)O)NC(=O)[C@H](Cc2ccc(O)cc2)NC(=O)[C@H](Cc2ccccc2)NC(=O)CSC[C@@H](C(=O)N[C@@H](C)C(N)=O)NC(=O)[C@H](CO)NC(=O)[C@H](C(C)C)NC(=O)[C@H](CC(C)C)NC(=O)[C@H](CC(N)=O)NC(=O)[C@@H](C)NC(=O)[C@@H](CCCN)NC(=O)[C@H](C(C)C)NC(=O)[C@H](Cc2ccc(-c3ccccc3)cc2)NC1=O [Compound 2001] ({CH2CO}-FYDWL[Bip]V[dOrn][dA]NLVSCA-NH2; thioether N-14) | 42.1 nM
CC(C)C[C@@H]1NC(=O)[C@H](Cc2c[nH]c3ccccc23)NC(=O)[C@H](CC(=O)O)NC(=O)[C@H](Cc2ccc(O)cc2)NC(=O)[C@H](Cc2ccccc2)NC(=O)CSC[C@@H](C(=O)N[C@@H](C)C(N)=O)NC(=O)[C@H](CO)NC(=O)[C@H](C(C)C)NC(=O)[C@H](CC(C)C)NC(=O)[C@H](CC(N)=O)NC(=O)[C@@H](C)NC(=O)[C@@H](CN)NC(=O)[C@H](C(C)C)NC(=O)[C@H](Cc2ccc(-c3ccccc3)cc2)NC1=O [Compound 2002] ({CH2CO}-FYDWL[Bip]V[dDap][dA]NLVSCA-NH2; thioether N-14) | 54.1 nM
CC(C)C[C@@H]1NC(=O)[C@H](Cc2c[nH]c3ccccc23)NC(=O)[C@H](CC(=O)O)NC(=O)[C@H](Cc2ccc(O)cc2)NC(=O)[C@H](Cc2ccccc2)NC(=O)CSC[C@@H](C(=O)N[C@@H](C)C(N)=O)NC(=O)[C@H](CO)NC(=O)[C@H](C(C)C)NC(=O)[C@H](CC(C)C)NC(=O)[C@H](CC(N)=O)NC(=O)[C@@H](C)NC(=O)[C@@H](CCN)NC(=O)[C@H](C(C)C)NC(=O)[C@H](Cc2ccc(-c3ccccc3)cc2)NC1=O [Compound 2003] ({CH2CO}-FYDWL[Bip]V[dDab][dA]NLVSCA-NH2; thioether N-14) | 35 nM
CCNC(=O)[C@H](C)NC(=O)[C@@H]1CSCC(=O)N[C@@H](Cc2ccncc2)C(=O)N[C@@H](Cc2ccc(C(=O)O)cc2)C(=O)N[C@@H](CC(=O)O)C(=O)N[C@@H](Cc2cccc(C)c2)C(=O)N[C@@H](C(C)C)C(=O)N[C@@H](Cc2ccc(-c3ccccc3)cc2)C(=O)N[C@@H]([C@@H](C)CC)C(=O)N[C@@H](CCCN)C(=O)N[C@H](CC(C)C)C(=O)N[C@@H](CCN)C(=O)N[C@@H](CC2CCCCC2)C(=O)N[C@@H](C(C)C)C(=O)N[C@@H]([C@@H](C)O)C(=O)N1 [Compound 2004] | 42.1 nM
Cc1cccc(C[C@@H]2NC(=O)[C@H](CC(=O)O)NC(=O)[C@H](Cc3ccc(OCC(=O)O)cc3)NC(=O)[C@H](CN)NC(=O)CSC[C@@H](C(=O)N[C@@H](C)C(=O)NCc3cnc(C)cn3)NC(=O)[C@H]([C@@H](C)O)NC(=O)[C@H](C(C)C)NC(=O)[C@H](CC3CCCCC3)NC(=O)[C@H](CCN)NC(=O)[C@@H](CC(C)C)NC(=O)[C@H](CCCN)NC(=O)[C@H](CCCNC(N)=O)NC(=O)[C@H](Cc3ccc(-c4ccccc4)cc3)NC(=O)[C@H](C(C)C)NC2=O)c1 [Compound 2006] | 14.8 nM
CC[C@H](C)[C@@H]1NC(=O)[C@H](Cc2ccc(-c3ccccc3)cc2)NC(=O)[C@H](C(C)C)NC(=O)[C@H](Cc2cccc(C)c2)NC(=O)[C@H](CC(=O)O)NC(=O)[C@H](Cc2ccc(C(=O)O)cc2)NC(=O)[C@H](Cc2ccncc2)NC(=O)CSC[C@@H](C(=O)N[C@@H](CCN)C(N)=O)NC(=O)[C@H]([C@@H](C)O)NC(=O)[C@H](C(C)C)NC(=O)[C@H](CC2CCCCC2)NC(=O)[C@H](CCN)NC(=O)[C@@H](CC(C)C)NC(=O)[C@H](CCCN)NC1=O [Compound 2007] | 24.3 nM

Now those with a lower IC50, led by results:

IC50 | Compound
3.9 nM | C#CC[C@H](NC(=O)[C@H](CCN)NC(=O)[C@@H]1CSCC(=O)N[C@@H](CN)C(=O)N[C@@H](Cc2ccc(OCC(=O)O)cc2)C(=O)N[C@@H](CC(=O)O)C(=O)N[C@@H](Cc2cccc(C)c2)C(=O)N[C@@H](Cc2ccc(OCC(=O)O)cc2)C(=O)N[C@@H](Cc2ccc(-c3ccccc3)cc2)C(=O)N[C@@H](Cc2ccc(OCC(=O)O)cc2)C(=O)N[C@@H](CCCN)C(=O)N[C@H](CC(C)C)C(=O)N[C@@H](CCN)C(=O)N[C@@H](CC2CCCCC2)C(=O)N[C@@H](C(C)(C)O)C(=O)N[C@@H](CO)C(=O)N1)C(N)=O [Compound 1860] ({CH2CO}-[Dap]Y(Carboxymethyl)D[Phe(3-Me)]Y(Carboxymethyl)[Bip]Y(Carboxymethyl)[Orn][dL][Dab][Cha][Val(3-OH)]SC[Dab][Pra]-NH2; thioether N-14)
10.8 nM | C#CC[C@H](NC(=O)[C@H](CCN)NC(=O)[C@@H]1CSCC(=O)N[C@@H](CN)C(=O)N[C@@H](Cc2ccc(OCC(=O)O)cc2)C(=O)N[C@@H](CC(=O)O)C(=O)N[C@@H](Cc2cccc(C)c2)C(=O)N[C@@H](Cc2ccc(OCC(=O)O)cc2)C(=O)N[C@@H](Cc2ccc(-c3ccccc3)cc2)C(=O)N[C@@H](Cc2ccc(OCC(=O)O)cc2)C(=O)N[C@@H](CCCN)C(=O)N[C@H](CC(C)C)C(=O)N[C@@H](CCN)C(=O)N[C@@H](CC2CCCCC2)C(=O)N[C@@H](C(C)C)C(=O)N[C@@H](CO)C(=O)N1)C(N)=O [Compound 1861] ({CH2CO}-[Dap]Y(Carboxymethyl)D[Phe(3-Me)]Y(Carboxymethyl)[Bip]Y(Carboxymethyl)[Orn][dL][Dab][Cha]VSC[Dab][Pra]-NH2; thioether N-14)
7.4 nM | C#CC[C@H](NC(=O)[C@H](CCN)NC(=O)[C@@H]1CSCC(=O)N[C@@H](CN)C(=O)N[C@@H](Cc2ccc(C(=O)O)cc2)C(=O)N[C@@H](CC(=O)O)C(=O)N[C@@H](Cc2cccc(C)c2)C(=O)N[C@@H](Cc2ccc(C(=O)O)cc2)C(=O)N[C@@H](Cc2ccc(-c3ccccc3)cc2)C(=O)N[C@@H](Cc2ccc(C(=O)O)cc2)C(=O)N[C@@H](CCCN)C(=O)N[C@H](CC(C)C)C(=O)N[C@@H](CCN)C(=O)N[C@@H](CC2CCCCC2)C(=O)N[C@@H](C(C)(C)O)C(=O)N[C@@H](Cc2cnc[nH]2)C(=O)N1)C(N)=O [Compound 1862] ({CH2CO}-[Dap][Phe(4-COOH)]D[Phe(3-Me)][Phe(4-COOH)][Bip][Phe(4-COOH)][Orn][dL][Dab][Cha][Val(3-OH)]HC[Dab][Pra]-NH2; thioether N-14)
4.3 nM | C#CC[C@H](NC(=O)[C@H](CCN)NC(=O)[C@@H]1CSCC(=O)N[C@@H](CN2CCOCC2)C(=O)N[C@@H](Cc2ccc(OCC(=O)O)cc2)C(=O)N[C@@H](CC(=O)O)C(=O)N[C@@H](Cc2cccc(C)c2)C(=O)N[C@@H](Cc2ccc(OCC(=O)O)cc2)C(=O)N[C@@H](Cc2ccc(-c3ccccc3)cc2)C(=O)N[C@@H](Cc2ccc(OCC(=O)O)cc2)C(=O)N[C@@H](CCCN)C(=O)N[C@H](CC(C)C)C(=O)N[C@@H](CCN)C(=O)N[C@@H](CC2CCCCC2)C(=O)N[C@@H](C(C)C)C(=O)N[C@@H](CO)C(=O)N1)C(N)=O [Compound 1863] ({CH2CO}-[Ala(morpholin-4-yl)]Y(Carboxymethyl)D[Phe(3-Me)]Y(Carboxymethyl)[Bip]Y(Carboxymethyl)[Orn][dL][Dab][Cha]VSC[Dab][Pra]-NH2; thioether N-14)
5.1 nM | Cc1cccc(C[C@@H]2NC(=O)[C@H](CC(=O)O)NC(=O)[C@H](Cc3ccc(C(=O)O)cc3)NC(=O)[C@H](CN)NC(=O)CSC[C@@H](C(=O)N[C@@H](C)C(=O)NCCCn3ccnc3)NC(=O)[C@H]([C@@H](C)O)NC(=O)[C@H](C(C)C)NC(=O)[C@H](CC(C)C)NC(=O)[C@H](CCN)NC(=O)[C@@H](CC(C)C)NC(=O)[C@H](CCCN)NC(=O)[C@H](C(C)C)NC(=O)[C@H](Cc3ccc(-c4ccccc4)cc3)NC(=O)[C@H](C(C)C)NC2=O)c1 [Compound 2005] ({CH2CO}-[Dap][Phe(4-COOH)]D[Phe(3-Me)]V[Bip]V[Orn][dL][Dab]LVTCA-X9; thioether N-14)

Reference: US20250163104A1, “MACROCYCLIC IMMUNOMODULATORS” (priority 2021, published 2025)
